Results taken from US10654884B2 (Vitae Pharmaceuticals, Inc., priority 2014, dated 2020).
pIC50: −log10 of the molar value. Like-named read-outs stand apart in the source and are kept apart here.

Tests used:
[1] = target: T1, CD73 on U138 neuroglioma cells (Homo sapiens, UniProt P21589); test: Inhibition of Ecto-5′-Nucleotidase Activity in U138 Neuroglioma Cells (Assay 2); assay type: cell-based
T1 construct: U138 neuroglioma cells, which express CD73 on their surface; endogenous in cells; host or cells: U138 neuroglioma cells (ATCC)
T1 sequence (P21589 27-549): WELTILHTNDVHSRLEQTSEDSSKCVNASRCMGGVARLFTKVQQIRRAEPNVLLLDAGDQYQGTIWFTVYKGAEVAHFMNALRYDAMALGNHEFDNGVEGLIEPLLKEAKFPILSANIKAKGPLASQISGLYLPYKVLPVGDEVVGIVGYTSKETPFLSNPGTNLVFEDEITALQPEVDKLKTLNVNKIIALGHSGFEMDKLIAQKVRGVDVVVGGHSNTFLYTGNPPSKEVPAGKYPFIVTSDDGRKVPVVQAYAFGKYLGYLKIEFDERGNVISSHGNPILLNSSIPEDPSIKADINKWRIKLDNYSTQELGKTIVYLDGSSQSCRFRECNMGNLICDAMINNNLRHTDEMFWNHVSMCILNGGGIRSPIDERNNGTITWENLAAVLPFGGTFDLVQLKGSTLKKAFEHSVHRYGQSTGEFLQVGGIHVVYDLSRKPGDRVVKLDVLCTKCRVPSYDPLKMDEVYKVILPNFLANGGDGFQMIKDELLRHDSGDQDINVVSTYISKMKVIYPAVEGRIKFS
Experimental: Inhibition of Ecto-5′-Nucleotidase Activity in U138 Neuroglioma Cells (Assay 2)
U138 cells were obtained from the American Type Culture Collection (ATCC) (Manassas, Va.), and cultured in complete growth media (DMEM, 10% FBS, 1 mM L-glutamine, 100 U penicillin-streptomycin) at 37° C., 5% CO2. The day before the experiment, cells were seeded at 2,500 cells/well in 100 μL of complete media into 96-well plates. Cells were washed twice with 200 μL of assay buffer (20 mM HEPES, pH 7.4, 137 mM NaCl, 5.4 mM KCl, 1.3 mM CaCl2, 4.2 mM NaHCO3, 1 mg/mL glucose) to remove residual inorganic phosphate. After washing, assays contained serial dilutions of test compounds and 50 μM of cytidine-5′-monophosphate (CMP) in a total volume of 200 μL of assay buffer, with a final DMSO concentration ≤0.1%. After 2 hr at 37° C., 5% CO2, 100 μL of supernatant was removed from the cells and the concentration of inorganic phosphate was determined using malachite green reagent. IC50 values for test compounds were determined from nonlinear regression fits of the data using XLfit (IDBS).

human CD73 = target: T2, human CD73 (Homo sapiens, UniProt P21589); test: Inhibition of 5′-Nucleotidase Activity of CD73 (Assay 1); assay type: biochemical; conditions: human CD73 4 ng/ml, 50 μM CMP, 20 min at RT, malachite green readout; read-out: Assay 1: IC50, inhibition of 5′-nucleotidase activity of CD73
T2 construct: purchased R&D Systems 5795-EN-010
T2 sequence (P21589 27-549): T1 sequence (P21589 27-549)
Experimental: Inhibition of 5′-Nucleotidase Activity of CD73 (Assay 1)
Compounds of the present invention were tested for the ability to inhibit CD73 enzyme activity. Tested compounds were dissolved in DMSO (50× final concentration), and 3.2 μL of the solutions added to 96-well polystyrene plates. To these wells were added, 100 μL of human CD73 (R&D Systems Cat. No. 5795-EN-010) and 57 μL of cytidine-5′-monophosphate (CMP) solutions in assay buffer (25 mM Tris-HCl, pH 7.4, 0.005% Brij-35) were added to achieve final concentrations in the assay of 4 ng/ml CD73 and 50 μM of CMP. The assay mixture was incubated for 20 min at RT. The reaction was stopped by addition of 40 μL of malachite green reagent which was prepared by mixing together 10 ml 2M H2SO4, 2.5 ml of 15% ammonium molybdate and 0.2 ml of 11% Tween-20. The mixture was agitated vigorously for 10 min at RT, and absorbance at 620 nm was determined on a microplate spectrophotometer. […] The IC50 values were derived using a non-linear 4 parameter logistic model (XLFit software, IDBS) and correspond to the inflection points on dose-response curves.

[2] = 50 μM CMP, 2 hr at 37° C., malachite green readout, read-out: Assay 2: IC50, inhibition of ecto-5′-nucleotidase activity in U138 neuroglioma cells

SMILES | pIC50 [1, 2] | pIC50 (human CD73) | pIC50 ([1]; IC50 value for APCP (standard), standard in each experiment, typical range)
Cc1nnc(C(OC[C@H]2O[C@@H](n3cnc4c(N)nc(Cl)nc43)[C@H](O)[C@@H]2O)P(=O)(O)O)o1 (single isomer, unassigned) [Example 21a] | < 6.00 | 6.00 to 7.00 | –
CCOC(=O)[C@H](OC[C@H]1O[C@@H](n2cnc3c(N)nc(Cl)nc32)[C@H](O)[C@@H]1O)P(=O)(O)O (single isomer, unassigned) [1, isomer 1] | > 7.00 | > 7.00 | –
CCOC(=O)[C@@H](OC[C@H]1O[C@@H](n2cnc3c(OCC)nc(Cl)nc32)[C@H](O)[C@@H]1O)P(=O)(O)O (single isomer, unassigned) [Example 27a] | 6.00 to 7.00 | 6.00 to 7.00 | –
CCOC(=O)[C@H](OC[C@H]1C[C@@H](n2cnc3cccc(C#N)c3c2=O)[C@H](O)[C@@H]1O)P(=O)(O)O [Example 73, ((R)-1-(((1R,2R,3S,4R)-4-(5-cyano-4-oxoquinazolin-3(4H)-yl)-2,3-dihydroxycyclopentyl)methoxy)-2-ethoxy-2-oxoethyl)phosphonic Acid] | 6.00 to 7.00 | > 7.00 | –
O=C(Nc1nc(I)nc2c1ncn2[C@@H]1O[C@H](COC(C(=O)O)P(=O)(O)O)[C@@H](O)[C@H]1O)c1ccccc1 (stereo partly drawn) [Example 58, 2-(((2R,3S,4R,5R)-5-(6-benzamido-2-iodo-9H-purin-9-yl)-3,4-dihydroxytetrahydrofuran-2-yl)methoxy)-2-phosphonoacetic acid] | 6.00 to 7.00 | > 7.00 | –
Nc1nc(F)nc2c1ncn2[C@@H]1O[C@H](CO[C@@H](C(=O)O)P(=O)(O)O)[C@@H](O)[C@H]1O [Example 53, (R)-2-(((2R,3S,4R,5R)-5-(6-amino-2-fluoro-9H-purin-9-yl)-3,4-dihydroxytetrahydrofuran-2-yl)methoxy)-2-phosphonoacetic Acid] | 6.00 to 7.00 | > 7.00 | –
CCS(=O)(=O)C(OC[C@H]1O[C@@H](n2cnc3c(N)nc(Cl)nc32)[C@H](O)[C@@H]1O)P(=O)(O)O (single isomer, unassigned) [Example 11] | 6.00 to 7.00 | > 7.00 | –
CCOc1nc(Cl)nc2c1ncn2[C@@H]1O[C@H](COC(C(=O)O)P(=O)(O)O)[C@@H](O)[C@H]1O (stereo partly drawn) [Example 63, 2-(((2R,3S,4R,5R)-5-(2-chloro-6-ethoxy-9H-purin-9-yl)-3,4-dihydroxytetrahydrofuran-2-yl)methoxy)-2-phosphonoacetic acid] | 6.00 to 7.00 | > 7.00 | –
CCOC(=O)[C@@H](OC[C@H]1O[C@@H](n2cnc3c(N)nc(Cl)nc32)[C@H](O)[C@@H]1O)P(=O)(O)O (single isomer, unassigned) [1, isomer 2] | 6.00 to 7.00 | 6.00 to 7.00 | –
CCOC(=O)[C@@H](OC[C@H]1O[C@@H](n2cnc3c(NC(=O)c4ccccc4)nc(Cl)nc32)[C@H](O)[C@@H]1O)P(=O)(O)O (single isomer, unassigned) [Example 36a] | < 6.00 | 6.00 to 7.00 | –
CCOC(=O)[C@H](OC[C@H]1O[C@@H](n2cnc3c(NC4CC4)nc(Cl)nc32)[C@H](O)[C@@H]1O)P(=O)(O)O (single isomer, unassigned) [Example 22] | > 7.00 | > 7.00 | –
CCOC(=O)[C@@H](OC[C@H]1O[C@@H](n2cnc3c(NCc4ccccc4)nc(Cl)nc32)[C@H](O)[C@@H]1O)P(=O)(O)O (single isomer, unassigned) [Example 24a] | 6.00 to 7.00 | 6.00 to 7.00 | –
O=C(O)C(OC[C@H]1O[C@@H](n2cnc3c(N4CCC(O)CC4)ncnc32)[C@H](O)[C@@H]1O)P(=O)(O)O (stereo partly drawn) [Example 66, 2-(((2R,3S,4R,5R)-3,4-dihydroxy-5-(6-(4-hydroxypiperidin-1-yl)-9H-purin-9-yl)tetrahydrofuran-2-yl)methoxy)-2-phosphonoacetic acid] | < 6.00 | 6.00 to 7.00 | –
Nc1nc(Cl)nc2c1ncn2[C@@H]1O[C@H](COC(C(=O)O)C(=O)O)[C@@H](O)[C@H]1O [Example 3, 2-(((2R,3S,4R,5R)-5-(6-amino-2-chloro-9H-purin-9-yl)-3,4-dihydroxytetrahydrofuran-2-yl)methoxy)malonic acid] | 6.00 to 7.00 | > 7.00 | –
O=C(O)C(OC[C@H]1O[C@@H](n2cnc3c(NO)nc(I)nc32)[C@H](O)[C@@H]1O)P(=O)(O)O (stereo partly drawn) [Example 59b, 2-(((2R,3S,4R,5R)-3,4-dihydroxy-5-(6-(hydroxyamino)-2-iodo-9H-purin-9-yl)tetrahydrofuran-2-yl)methoxy)-2-phosphonoacetic acid] | 6.00 to 7.00 | > 7.00 | –
Nc1ncnc2c1ncn2[C@@H]1O[C@H](COP(=O)(O)CP(=O)(O)O)[C@@H](O)[C@H]1O [APCP, adenosine 5′-(α,β-methylene)diphosphate, reference compound] | – | – | 7.60 to 7.92
CC(C)Nc1ncnc2c1ncn2[C@@H]1O[C@H](COC(C(=O)O)P(=O)(O)O)[C@@H](O)[C@H]1O (stereo partly drawn) [Example 64, 2-(((2R,3S,4R,5R)-3,4-dihydroxy-5-(6-(isopropylamino)-9H-purin-9-yl)tetrahydrofuran-2-yl)methoxy)-2-phosphonoacetic acid] | – | < 6.00 | –

More lines, main results first:

pIC50 [1, 2] | pIC50 (human CD73) | SMILES | pIC50 ([1]; IC50 value for APCP (standard), standard in each experiment, typical range)
6.00 to 7.00 | 6.00 to 7.00 | O=C(O)C(Cc1ccc(F)cc1)(OC[C@H]1O[C@@H](n2cnc3c(NC4CCCC4)nc(Cl)nc32)[C@H](O)[C@@H]1O)C(=O)O [Example 97, 2-(((2R,3S,4R,5R)-5-(2-chloro-6-(cyclopentylamino)-9H-purin-9-yl)-3,4-dihydroxytetrahydrofuran-2-yl)methoxy)-2-(4-fluorobenzyl)malonic acid] | –
6.00 to 7.00 | > 7.00 | CCN(CC)C(=O)[C@H](OC[C@H]1O[C@@H](n2cnc3c(N)nc(Cl)nc32)[C@H](O)[C@@H]1O)P(=O)(O)O (single isomer, unassigned) [Example 82a] | –
6.00 to 7.00 | > 7.00 | CCN(CC)C(=O)[C@@H](OC[C@H]1O[C@@H](n2cnc3c(N)nc(Cl)nc32)[C@H](O)[C@@H]1O)P(=O)(O)O (single isomer, unassigned) [Example 82] | –
< 6.00 | 6.00 to 7.00 | CCOC(=O)[C@](CC(=O)O)(OC[C@H]1O[C@@H](n2cnc3c(N)nc(F)nc32)[C@H](O)[C@@H]1O)P(=O)(O)O (single isomer, unassigned) [Example 79] | –
6.00 to 7.00 | > 7.00 | CCOC(=O)C(OC[C@H]1C[C@@H](n2nnc3c(N)nc(Br)nc32)[C@H](O)[C@@H]1O)P(=O)(O)O (single isomer, unassigned) [Example 77a] | –
< 6.00 | 6.00 to 7.00 | CC(C)(C)OC(=O)C(OC[C@H]1C[C@@H](n2cnc3c(N)nc(Cl)nc32)[C@H](O)[C@@H]1O)P(=O)(O)O (single isomer, unassigned) [Example 78a] | –
6.00 to 7.00 | > 7.00 | CC(C)(C)OC(=O)C(OC[C@H]1C[C@@H](n2cnc3c(N)nc(Cl)nc32)[C@H](O)[C@@H]1O)P(=O)(O)O (single isomer, unassigned) [Example 78] | –
> 7.00 | > 7.00 | N#Cc1ccccc1CC(OC[C@H]1O[C@@H](n2cnc3c(N)nc(Cl)nc32)[C@H](O)[C@@H]1O)(C(=O)O)C(=O)O [Example 85] | –
6.00 to 7.00 | 6.00 to 7.00 | CCOC(=O)C(SC[C@H]1O[C@@H](n2cnc3c(N)nc(Cl)nc32)[C@H](O)[C@@H]1O)P(=O)(O)O (stereo partly drawn) [Example 99, (1-((((2S,3S,4R,5R)-5-(6-amino-2-chloro-9H-purin-9-yl)-3,4-dihydroxytetrahydrofuran-2-yl)methyl)thio)-2-ethoxy-2-oxoethyl)phosphonic Acid] | –
